Assay results taken from PubChem BioAssay AID248 (DTP/NCI, 2004).
Several values for one entry are separate records, joined by “and”; a condition that tells them apart may be missing. Equal values may be shown once. Inconclusive results and toxic doses are left out. Cut-off read from the data, not from the text of the source: active = T/C of 150% or more; inactive = T/C below 125%.

Tested on: L1210 leukemia ip in BDF1 mice, survival T/C
Test: NCI In Vivo Anticancer Drug Screen. Data for tumor model L1210 Leukemia (intraperitoneal) in B6D2F1 (BDF1) mice
Settings: endpoint: mean survival time, higher = longer survival
Summary of the method: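 In this screen, tumor-bearing mice given compound are compared to those given vehicle, and their survival values are reported as a treated-to-control quotient.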

[1] = dose: 50.0 mg/kg/injection, schedule: Q01DX009 (ip), vehicle: saline
[2] = dose: 100.0 mg/kg/injection, schedule: Q01DX009 (ip), vehicle: saline
[3] = dose: 100.0 mg/kg/injection, schedule: Q01DX001 (ip), vehicle: saline
[4] = dose: 200.0 mg/kg/injection, schedule: Q01DX001 (ip), vehicle: saline
[5] = dose: 100.0 mg/kg/injection, schedule: Q04DX003 (ip), vehicle: saline with Tween-80
[6] = dose: 200.0 mg/kg/injection, schedule: Q04DX003 (ip), vehicle: saline with Tween-80
[7] = dose: 400.0 mg/kg/injection, schedule: Q04DX003 (ip), vehicle: saline with Tween-80
[8] = dose: 100.0 mg/kg/injection, schedule: Q04DX003 (ip), vehicle: saline
[9] = dose: 200.0 mg/kg/injection, schedule: Q01DX009 (ip), vehicle: saline
[10] = dose: 200.0 mg/kg/injection, schedule: Q04DX003 (ip), vehicle: saline
[11] = dose: 400.0 mg/kg/injection, schedule: Q04DX003 (ip), vehicle: saline

Measured: T/C

NC(=O)c1ccc[n+](CCO)c1
inactive: dose: 3.1 mg/kg/injection, schedule: Q01DX009 (ip), vehicle: saline 102 % of control | dose: 6.25 mg/kg/injection, schedule: Q01DX009 (ip), vehicle: saline 104 % of control | dose: 12.5 mg/kg/injection, schedule: Q01DX009 (ip), vehicle: saline 98 % of control | dose: 25.0 mg/kg/injection, schedule: Q01DX009 (ip), vehicle: saline 104 % of control | [1] 110 % of control | [2] 100 % of control | dose: 115.0 mg/kg/injection, schedule: Q01DX Z (ip), vehicle: saline 100 % of control | dose: 150.0 mg/kg/injection, schedule: Q04DX003 (ip), vehicle: saline 100 % of control | dose: 175.0 mg/kg/injection, schedule: Q01DX Z (ip), vehicle: saline 94 % of control | dose: 225.0 mg/kg/injection, schedule: Q04DX003 (ip), vehicle: saline 104 % of control | dose: 265.0 mg/kg/injection, schedule: Q01DX Z (ip), vehicle: saline 105 % of control | dose: 335.0 mg/kg/injection, schedule: Q04DX003 (ip), vehicle: saline 100 % of control | dose: 400.0 mg/kg/injection, schedule: Q01DX Z (ip), vehicle: saline 100 % of control

C[CH2][Ge]([CH2]C)[CH2]C.C[CH2][Ge]([CH2]C)[CH2]C.C[CH2][Ge][CH2]C
active: dose: 400.0 mg/kg/injection, schedule: Q04DX002 (ip), vehicle: saline with Tween-80 319 % of control
inactive: dose: 100.0 mg/kg/injection, schedule: Q04DX002 (ip), vehicle: saline with Tween-80 103 % of control | dose: 200.0 mg/kg/injection, schedule: Q04DX002 (ip), vehicle: saline with Tween-80 95 % of control

Cc1nc2ncnc(Cl)c2[nH]1
inactive: [3] 103 % of control | [4] 106 % of control | dose: 400.0 mg/kg/injection, schedule: Q01DX001 (ip), vehicle: saline 100 % of control

[Ni+2].[O-]c1ccc(Cl)cc1C=NCc1ccccn1.[O-]c1ccc(Cl)cc1C=NCc1ccccn1
inactive: [5] 93 % of control | [6] 93 % of control

CC(C)(O)C/C=C/c1ccccc1
inactive: [5] 103 % of control | [6] 103 % of control | [7] 106 % of control

CCC(CC)COC(=O)CI
inactive: dose: 5.0 mg/kg/injection, schedule: Q01DX001 (ip), vehicle: saline 100 % of control | dose: 10.0 mg/kg/injection, schedule: Q01DX001 (ip), vehicle: saline 100 % of control | dose: 20.0 mg/kg/injection, schedule: Q01DX001 (ip), vehicle: saline 100 % of control | dose: 40.0 mg/kg/injection, schedule: Q01DX001 (ip), vehicle: saline 100 % of control | dose: 80.0 mg/kg/injection, schedule: Q01DX001 (ip), vehicle: saline 100 % of control

O=[N+]([O-])c1ccn(Cc2ccccc2)c1
inactive: dose: 100.0 mg/kg/injection, schedule: Q01DX001 (ip), vehicle: carboxymethylcellulose (CMC) 97 % of control | dose: 200.0 mg/kg/injection, schedule: Q01DX001 (ip), vehicle: carboxymethylcellulose (CMC) 88 % of control | dose: 400.0 mg/kg/injection, schedule: Q01DX001 (ip), vehicle: carboxymethylcellulose (CMC) 92 % of control

CSc1ccc(NC(=O)Nc2ccccc2C(N)=O)cc1
inactive: [2] 108 % of control | [8] 92 % of control | [9] 114 % of control | [10] 98 % of control | [11] 95 % of control

N=C(N[N+](=O)[O-])N(CCC(=O)O)N=O
inactive: dose: 50.0 mg/kg/injection, schedule: Q01DX001 (ip), vehicle: saline 100 % of control | [1] 90 % of control | dose: 53.0 mg/kg/injection, schedule: Q01DX015 (ip), vehicle: saline 113 % of control | dose: 79.0 mg/kg/injection, schedule: Q01DX015 (ip), vehicle: saline 124 % of control | dose: 100.0 mg/kg/injection, schedule: Q01DX001 (ip), vehicle: other 97 % of control | [3] 107 % of control | dose: 100.0 mg/kg/injection, schedule: Q01DX009 (ip), vehicle: other 103 % of control | [2] 96 % of control | [8] 96 % of control | dose: 178.0 mg/kg/injection, schedule: Q01DX001 (ip), vehicle: saline 109 % of control and 122 % of control | dose: 178.0 mg/kg/injection, schedule: Q01DX015 (ip), vehicle: saline 116 % of control | dose: 200.0 mg/kg/injection, schedule: Q01DX001 (ip), vehicle: other 101 % of control | [4] 113 % of control | dose: 200.0 mg/kg/injection, schedule: Q01DX009 (ip), vehicle: other 98 % of control | [9] 104 % of control | [10] 98 % of control | dose: 267.0 mg/kg/injection, schedule: Q01DX001 (ip), vehicle: saline 112 % of control and 121 % of control | dose: 400.0 mg/kg/injection, schedule: Q01DX001 (ip), vehicle: other 100 % of control | dose: 400.0 mg/kg/injection, schedule: Q01DX009 (ip), vehicle: other 98 % of control | dose: 400.0 mg/kg/injection, schedule: Q01DX009 (ip), vehicle: saline 100 % of control | [11] 91 % of control | dose: 600.0 mg/kg/injection, schedule: Q01DX001 (ip), vehicle: other 94 % of control | dose: 800.0 mg/kg/injection, schedule: Q01DX001 (ip), vehicle: other 92 % of control | dose: 800.0 mg/kg/injection, schedule: Q01DX001 (ip), vehicle: saline 86 % of control

CCCCCCCCCCCCCCCCCCNC(=O)Nc1ccc(C)cc1
inactive: dose: 100.0 mg/kg/injection, schedule: Q01DX009 (sc), vehicle: olive oil, sesame oil, peanut oil 112 % of control | dose: 100.0 mg/kg/injection, schedule: Q04DX003 (sc), vehicle: olive oil, sesame oil, peanut oil 114 % of control | dose: 200.0 mg/kg/injection, schedule: Q01DX009 (sc), vehicle: olive oil, sesame oil, peanut oil 106 % of control | dose: 200.0 mg/kg/injection, schedule: Q04DX003 (sc), vehicle: olive oil, sesame oil, peanut oil 104 % of control | dose: 400.0 mg/kg/injection, schedule: Q01DX009 (sc), vehicle: olive oil, sesame oil, peanut oil 106 % of control | dose: 400.0 mg/kg/injection, schedule: Q04DX003 (sc), vehicle: olive oil, sesame oil, peanut oil 98 % of control

CC(=O)Nc1cccc(OC(=O)Nc2ccc(F)c(Cl)c2)c1
inactive: dose: 100.0 mg/kg/injection, schedule: Q04DX002 (ip), vehicle: Klucel (hydroxypropylcellulose) (HPC) 96 % of control | dose: 200.0 mg/kg/injection, schedule: Q04DX002 (ip), vehicle: Klucel (hydroxypropylcellulose) (HPC) 89 % of control | dose: 400.0 mg/kg/injection, schedule: Q04DX002 (ip), vehicle: Klucel (hydroxypropylcellulose) (HPC) 121 % of control

C(=N/N=C(N/N=C/c1cccs1)N/N=C/c1cccs1)/c1cccs1
inactive: dose: 15.0 mg/kg/injection, schedule: Q01DX Z (ip), vehicle: carboxymethylcellulose (CMC) 97 % of control | dose: 30.0 mg/kg/injection, schedule: Q01DX Z (ip), vehicle: carboxymethylcellulose (CMC) 89 % of control | dose: 60.0 mg/kg/injection, schedule: Q01DX Z (ip), vehicle: carboxymethylcellulose (CMC) 97 % of control | dose: 120.0 mg/kg/injection, schedule: Q01DX Z (ip), vehicle: carboxymethylcellulose (CMC) 95 % of control and 97 % of control | dose: 240.0 mg/kg/injection, schedule: Q01DX Z (ip), vehicle: carboxymethylcellulose (CMC) 97 % of control | dose: 240.0 mg/kg/injection, schedule: Q01DX Z (oral), vehicle: carboxymethylcellulose (CMC) 107 % of control | dose: 480.0 mg/kg/injection, schedule: Q01DX Z (ip), vehicle: carboxymethylcellulose (CMC) 94 % of control | dose: 480.0 mg/kg/injection, schedule: Q01DX Z (oral), vehicle: carboxymethylcellulose (CMC) 107 % of control | dose: 960.0 mg/kg/injection, schedule: Q01DX Z (oral), vehicle: carboxymethylcellulose (CMC) 105 % of control | dose: 1920.0 mg/kg/injection, schedule: Q01DX Z (oral), vehicle: carboxymethylcellulose (CMC) 111 % of control

CCOC(=O)c1ccc(NC(=O)C(Br)C(Br)C(=O)O)cc1 (stereo unspecified)
inactive: dose: 100.0 mg/kg/injection, schedule: Q01DX009 (ip), vehicle: saline with Tween-80 94 % of control | [5] 101 % of control | dose: 200.0 mg/kg/injection, schedule: Q01DX009 (ip), vehicle: saline with Tween-80 94 % of control | [6] 100 % of control | dose: 400.0 mg/kg/injection, schedule: Q01DX009 (ip), vehicle: saline with Tween-80 97 % of control | [7] 101 % of control
